The target in one data set is full length NS3/4a (Hepatitis C virus genotype 1b (isolate BK) (HCV), UniProt P26663). Description: NS3 Protease Assay (Example A), FRET-based. It counts as biochemical. The method in brief:
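Initial rates were taken from fluorescence progress curves over 30 min at room temperature, and IC50 was fitted across replicates. In-house full-length NS3/4a cleaved a FRET peptide (5-FAMsp/QXL520) from the NS4A/B site. Medium: 50 mM Tris pH8, 20 mM DTT, 1% CHAPS, 10% glycerol, 5% DMSO.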

Data set [1] is described as follows: Replicon Assay (Example B), Alamar Blue cytotoxicity CC50. The format is cell-based. As to conditions: human, lower value of the cell pair. The method in brief: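 Huh-7 cells carrying a luciferase/neo HCV subgenomic replicon (NS3–NS5b) were treated with semilog compound dilutions in triplicate (0.1% DMSO) for 72 h at 37 °C. Viability came from Alamar blue resazurin-to-resorufin fluorescence (535/590 nm) for CC50. EC50 came from Bright-Glo luciferase luminescence as a proxy for HCV RNA.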

Data set [2] deals with HCV subgenomic replicon in Huh-7 cells. Description: Replicon Assay (Example B), luciferase readout EC50. It counts as cell-based. The following applies: Hepatitis C virus. In short, it runs like this:
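Huh-7 cells carrying a luciferase-neo HCV subgenomic replicon (NS3–NS5b) were treated with semilog compound dilutions (0.1% DMSO final), in triplicate, for 72 h at 37° C. EC50 came from Bright-Glo luciferase signal as a proxy for replicon RNA; viability was read by Alamar blue.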

Setting [3] is: HCV NS3 protease assay, full length NS3/4a, read-out: Assay A IC50 (μM) average.
[4] abbreviates: read-out: IC50 against the protease activity of the full length NS3/4a.
The mark [5] stands for this setting: Huh-7, replicon assay, luciferase readout, upper value of the cell pair, read-out: Assay B EC50.

Where two headings read alike, the source gives them in different places.

Sequence of full length NS3/4a (P26663 1027-1657): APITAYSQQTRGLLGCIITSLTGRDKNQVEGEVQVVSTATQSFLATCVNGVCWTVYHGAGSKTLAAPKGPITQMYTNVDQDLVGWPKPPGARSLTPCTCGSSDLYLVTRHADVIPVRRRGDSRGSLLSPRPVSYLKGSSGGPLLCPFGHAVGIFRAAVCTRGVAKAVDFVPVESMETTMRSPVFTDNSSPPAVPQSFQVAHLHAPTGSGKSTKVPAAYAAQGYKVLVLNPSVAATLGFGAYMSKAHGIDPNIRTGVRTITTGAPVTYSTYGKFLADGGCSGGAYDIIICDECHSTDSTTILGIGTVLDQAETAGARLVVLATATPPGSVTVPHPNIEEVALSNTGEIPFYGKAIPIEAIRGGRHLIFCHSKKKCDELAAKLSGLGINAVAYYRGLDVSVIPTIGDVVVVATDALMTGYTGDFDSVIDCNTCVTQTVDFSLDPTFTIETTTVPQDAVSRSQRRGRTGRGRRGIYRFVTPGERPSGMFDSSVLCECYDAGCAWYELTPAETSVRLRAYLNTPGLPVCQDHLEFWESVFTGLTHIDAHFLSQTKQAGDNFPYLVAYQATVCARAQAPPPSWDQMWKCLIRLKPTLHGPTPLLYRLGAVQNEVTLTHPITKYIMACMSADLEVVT

As usually defined, the CC50 is the concentration that lowers cell viability or growth by half. As a reminder, the EC50 is the midpoint of the concentration-response curve. On to `CC[C@@H](N[C@@H](C)CC(N)=O)c1ccc(Cl)c(C(=O)c2ccccn2)c1F` [Example 104, (3S)-3-{[(1R)-1-{4-chloro-2-fluoro-3-[(pyridin-2-yl)carbonyl]phenyl}-propyl]amino}butanamide], for which the IC50 at full length NS3/4a (setting [3]) was 0.24 µM; on full length NS3/4a (setting [4]) it was less than 1 µM. In data set [1], this compound had a CC50 at 72 h of more than 3000 nM. Besides, the EC50 in data set [2] (setting [5]) turned out to be 390 nM.

As for `CC[C@@H](N[C@@H](C)CC(N)=O)c1ccc(C)c(C(=O)c2ccccc2)c1F` [Example 150, (3S)-3-{[(1R)-1-(3-benzoyl-2-fluoro-4-methylphenyl)propyl]-amino}butanamide], at full length NS3/4a (setting [3]), the IC50 was determined as 0.068 µM. Moreover, in data set [1], the half-maximal cytotoxic concentration (CC50) at 72 h is more than 10000 nM. Also, the EC50 in data set [2] (setting [5]) worked out at 310 nM.

With `CC[C@@H](N[C@@H](C)CC(N)=O)c1ccc(Cl)c(C(=O)c2ccc3c(n2)NC(=O)CO3)c1F` [Example 229, (3S)-3-{[(1R)-1-[4-chloro-2-fluoro-3-({3-oxo-2H,3H,4H-pyrido[3,2-b][1,4]oxazin-6-yl}carbonyl)phenyl]propyl]amino}butanamide], the results for the IC50 on full length NS3/4a (setting [3]) and at full length NS3/4a (setting [4]) were 1.1 µM and 1 to 5 µM, respectively. This compound also had a CC50 at 72 h in data set [1] of more than 3000 nM. In addition, in data set [2] (setting [5]), the EC50 came to 1900 nM.

Regarding `CC[C@@H](N[C@@H](C)CC(N)=O)c1ccc(Cl)c(C(=O)c2ccc(N)c(C)c2)c1F` [Example 259, (3S)-3-{[(1R)-1-{3-[(4-amino-3-methylphenyl)carbonyl]-4-chloro-2-fluorophenyl}propyl]amino} butanamide], the IC50 at full length NS3/4a (setting [3]) was 0.11 µM; at full length NS3/4a (setting [4]), less than 1 µM. The compound also displayed a CC50 at 72 h in data set [1] of more than 1000 nM. Moreover, the EC50 in data set [2] (setting [5]) is 21 nM.

On to `CC[C@@H](N[C@@H](C)CC(N)=O)c1ccc(Cl)c(C(=O)c2ccc(C#N)nc2)c1F` [Example 133, (3S)-3-{[(1R)-1-{4-chloro-3-[(6-cyanopyridin-3-yl)carbonyl]-2-fluorophenyl}propyl]-amino}butanamide], for which the IC50 on full length NS3/4a (setting [3]) is 0.12 µM. Besides, the cytotoxic concentration (CC50) at 72 h in data set [1] was more than 3000 nM. Further, the EC50 in data set [2] (setting [5]) is more than 3000 nM.

Regarding `CC[C@@H](N[C@@H](C)CC(N)=O)c1ccc(Cl)c(C(=O)c2cccnc2)c1F` [Example 93, (3S)-3-{[(1R)-1-{4-chloro-2-fluoro-3-[(pyridin-3-yl)carbonyl]phenyl}propyl]-amino}butanamide], the IC50 at full length NS3/4a (setting [3]) came to 0.14 µM. Moreover, in data set [1], the CC50 at 72 h is more than 3000 nM. Further, the EC50 in data set [2] (setting [5]) was 510 nM.

Take `CC[C@@H](NC(C)(C)CC(N)=O)c1ccc(Cl)c(C(=O)c2cccnc2)c1F` [Example 113, 3-{[(1R)-1-{4-Chloro-2-fluoro-3-[(pyridin-3-yl)carbonyl]phenyl}propyl]amino}-3-methylbutanamide]: the IC50 at full length NS3/4a (setting [3]) was found to be 0.093 µM. The same compound had a CC50 at 72 h in data set [1] of more than 3000 nM. Also, the EC50 in data set [2] (setting [5]) was found to be 180 nM.

Turning to `CC[C@@H](N[C@@H](C)CC(N)=O)c1ccc(F)c(C(=O)c2ccccc2)c1F` [Example 157, (3S)-3-{[(1R)-1-(3-benzoyl-2,4-difluorophenyl)propyl]-amino}butanamide], the IC50 at full length NS3/4a (setting [3]) was 0.045 µM. The compound also displayed a CC50 at 72 h in data set [1] of more than 10000 nM. Also, in data set [2] (setting [5]), the EC50 stood at 610 nM.

Regarding `CC[C@@H](N[C@@H](C)CC(N)=O)c1ccc(Cl)c(C(=O)c2ccc(N)nc2)c1F` [Example 81, (3S)-3-{[(1R)-1-{3-[(6-aminopyridin-3-yl)carbonyl]-4-chloro-2-fluorophenyl}propyl]-amino}butanamide], the IC50 at full length NS3/4a (setting [3]) came out at 0.22 µM. In addition, the cytotoxic concentration (CC50) at 72 h in data set [1] was more than 3000 nM. Further, the EC50 in data set [2] (Huh-7, pre-determined EC50 used to set concentrations in combination studies, read-out: EC50 (replicon)) was 20 nM; in data set [2] (setting [5]), 18 nM.

Regarding `COc1cc(C(=O)c2c(Cl)ccc([C@H](N)C3CC3)c2F)ccc1C#N` [Example 69, 4-({3-[(R)-amino(cyclopropyl)methyl]-6-chloro-2-fluorophenyl}carbonyl)-2-methoxybenzonitrile], the IC50 at full length NS3/4a (setting [3]) is 0.052 µM. In data set [1], this compound returned a CC50 at 72 h of more than 1000 nM. Moreover, the EC50 in data set [2] (setting [5]) came to 33 nM.

Regarding `CC[C@@H](NCCC(N)=O)c1ccc(Cl)c(C(=O)c2cnc(N)cn2)c1F` [Example 183, 3-{[(1R)-1-{3-[(5-Aminopyrazin-2-yl)carbonyl]-4-chloro-2-fluorophenyl}propyl]amino}propanamide], the IC50 on full length NS3/4a (setting [3]) amounted to 0.5 µM. Further, in data set [1], the half-maximal cytotoxic concentration (CC50) at 72 h is more than 10000 nM. The EC50 in data set [2] (setting [5]) was 2200 nM.

As to `CC[C@@H](NCCC(N)=O)c1ccc(Cl)c(C(=O)c2ccc(N)nc2)c1F` [Example 180, 3-{[(1R)-1-{3-[(6-Aminopyridin-3-yl)carbonyl]-4-chloro-2-fluorophenyl}propyl]amino}propanamide], the IC50 on full length NS3/4a (setting [3]) is 0.14 µM. Also, the CC50 at 72 h in data set [1] was more than 3000 nM. Besides, in data set [2] (setting [5]), the EC50 was 270 nM.

In the case of `CC[C@@H](N[C@@H](C)CC(=O)NCCO)c1ccc(Cl)c(C(=O)c2ccc(N)nc2)c1F` [Example 242, (3S)-3-{[(1R)-1-{3-[(6-aminopyridin-3-yl)carbonyl]-4-chloro-2-fluorophenyl}propyl]amino}-N-(2-hydroxyethyl)butanamide], the IC50 at full length NS3/4a (setting [3]) was determined as 0.49 µM. In data set [1], this compound returned a CC50 at 72 h of more than 1000 nM. Besides, the EC50 in data set [2] (setting [5]) was 98 nM.

With `C[C@@H](CC(N)=O)N[C@@H](c1ccc(Cl)c(C(=O)c2ccncc2)c1F)C1CC1` [Example 134, (3S)-3-{[(R)-{4-chloro-2-fluoro-3-[(pyridin-4-yl)carbonyl]phenyl}-(cyclopropyl)methyl]-amino}butanamide], the IC50 on full length NS3/4a (setting [3]) is 0.085 µM. The compound also displayed a CC50 at 72 h in data set [1] of more than 3000 nM. The concentration for a half-maximal effect (EC50) in data set [2] (setting [5]) was 52 nM.

As to `CC[C@H](N[C@H](C)CO)c1ccc(Cl)c(C(=O)c2ccc(N)nc2)c1F` [Example 178, (2R)-2-{[(1S)-1-{3-[(6-aminopyridin-3-yl)carbonyl]-4-chloro-2-fluorophenyl}propyl]-amino}propan-1-ol], the IC50 at full length NS3/4a (setting [3]) was found to be 0.088 µM. The CC50 at 72 h in data set [1] was more than 3000 nM. Also, the EC50 in data set [2] (setting [5]) was determined as 250 nM.

`C[C@@H](CC(N)=O)N[C@@H](c1ccc(Cl)c(C(=O)c2ccc(N)nc2)c1F)C1CC1` [Example 154, (3S)-3-{[(R)-{3-[(6-aminopyridin-3-yl)carbonyl]-4-chloro-2-fluorophenyl}(cyclo-propyl)methyl]amino}-butanamide]: the IC50 on full length NS3/4a (setting [3]) was 0.2 µM. Besides, in data set [1], the CC50 at 72 h is more than 10000 nM. For the same compound, the EC50 in data set [2] (setting [5]) stood at 37 nM.

As to `CC[C@@H](N[C@@H](C)CC(N)=O)c1ccc(Cl)c(C(=O)c2cc(C)on2)c1F` [Example 110, (3S)-3-{[(1R)-1-{4-chloro-2-fluoro-3-[(5-methyl-1,2-oxazol-3-yl)carbonyl]-phenyl}-propyl]amino}-butanamide], the IC50 at full length NS3/4a (setting [3]) turned out to be 0.17 µM. Further, the CC50 at 72 h in data set [1] was more than 3000 nM. Further, the EC50 in data set [2] (setting [5]) was found to be 510 nM.

In the case of `CC(C)C[C@@H](N[C@@H](C)CC(N)=O)c1ccc(Cl)c(C(=O)c2ccc(N)nc2)c1F` [Example 269, (3S)-3-{[(1R)-1-{3-[(6-aminopyridin-3-yl)carbonyl]-4-chloro-2-fluorophenyl}-3-methylbutyl]amino}-butanamide], the IC50 at full length NS3/4a (setting [3]) is 1.1 µM; at full length NS3/4a (setting [4]) it was 1 to 5 µM. The compound further registered a CC50 at 72 h in data set [1] of more than 3000 nM. Further, the EC50 in data set [2] (setting [5]) came to 70 nM.

Take `CC[C@H](N[C@@H](C)CO)c1ccc(Cl)c(C(=O)c2ccc(N)nc2)c1F` [Example 177, (2S)-2-{[(1S)-1-{3-[(6-aminopyridin-3-yl)carbonyl]-4-chloro-2-fluorophenyl}propyl]amino}propan-1-ol]: the IC50 on full length NS3/4a (setting [3]) worked out at 0.18 µM. For the same compound, the CC50 at 72 h in data set [1] is more than 3000 nM. The EC50 in data set [2] (setting [5]) is more than 3000 nM.

Turning to `C[C@@H](CC(N)=O)N[C@@H](c1ccc(Cl)c(C(=O)c2ccc3c(c2)OCC(=O)N3)c1F)C1CC1` [Example 270, (3S)-3-{[(R)-{4-chloro-2-fluoro-3-[(3-oxo-3,4-dihydro-2H-1,4-benzoxazin-7-yl)carbonyl]phenyl} (cyclopropyl)methyl]amino} butanamide], the IC50 on full length NS3/4a (setting [3]) is 0.18 µM; at full length NS3/4a (setting [4]), less than 1 µM. For the same compound, the CC50 at 72 h in data set [1] was more than 3000 nM. The EC50 in data set [2] (setting [5]) worked out at 6 nM.

One may read the inhibition as how much of the control response was suppressed. The compound `C[C@@H](CC(N)=O)N[C@@H](c1ccc(Cl)c(C(=O)c2ccc(F)cc2)c1F)C1CC1` [Example 121, (3S)-3-{[(R)-{4-chloro-2-fluoro-3-[(4-fluorophenyl)-carbonyl]phenyl}(cyclopropyl)methyl]amino}butanamide] showed an inhibition at 0.03 µM on full length NS3/4a (@ 0.03 uM) of 38%. This compound also returned a cytotoxic concentration (CC50) at 72 h in data set [1] of more than 3000 nM. Further, in data set [2] (setting [5]), the EC50 is 9.9 nM.

`CC[C@@H](NCCC(N)=O)c1ccc(Cl)c(C(=O)c2ccccc2)c1F` [Example 167, 3-{[(1R)-1-(3-Benzoyl-4-chloro-2-fluorophenyl)propyl]amino}-propanamide]: the results for the IC50 at full length NS3/4a (setting [3]) and at full length NS3/4a (setting [4]) were 0.098 µM and less than 1 µM, respectively. In data set [1], this compound returned a CC50 at 72 h of more than 3000 nM. Further, the EC50 in data set [2] (setting [5]) stood at 630 nM.

Consider `CC[C@@H](N[C@@H](C)CC(N)=O)c1ccc(Cl)c(C(=O)c2cccc(F)c2)c1F` [Example 95, (3S)-3-{[(1R)-1-{4-chloro-2-fluoro-3-[(3-fluorophenyl)-carbonyl]-phenyl}propyl]-amino}-butanamide], for which the IC50 at full length NS3/4a (setting [3]) amounted to 0.085 µM. Moreover, the CC50 at 72 h in data set [1] is more than 3000 nM. In data set [2] (setting [5]), the EC50 is 41 nM.

Values taken from patent publication US9145354B2, “Pharmaceutical compounds” (priority 2011, dated 2015).
